# Reference: patent US20250374927A1, “HERBICIDAL COMBINATIONS AND A METHOD FOR CONTROLLING UNDESIRED VEGETATION” (UPL Mauritius Limited, priority 2022, published 2025)
# Tested on: Borreria verticillata
# Assay: Post-emergence herbicidal efficacy of L-glufosinate ammonium, additional herbicides and their combinations (observed vs Colby expected)
# Format: in vivo
# Procedure: Methodology: Trials were carried out to evaluate the efficacy of the combination comprising L-glufosinate ammonium and the additional herbicides on Spermacoce genus weeds.
# The soil used was sandy clay loam-sand: 68.0%; silt: 8.0%; clay: 24.0%.
# All treatments were in 4 replications per treatment with a spray volume of about 150 L/ha.
# Efficacy Evaluation: The expected efficacy of the combination comprising L-glufosinate ammonium and additional herbicides was calculated using the well-established Colby method.
# In the Colby method, the expected (or predicted) response of a combination of herbicides is calculated by taking the product of the observed response for each individual component of the combination when applied alone, divided by 100, and subtracting this value from the sum of the observed response for each component when applied alone. An unexpected enhancement in efficacy of the combination is then determined by comparing the observed response of the combination to the expected (or predicted) response as calculated from the observed response of each individual component alone. If the observed response of the combination is greater than the expected (or predicted) response, or stated conversely, if the difference between the observed and expected response is greater than zero, then the combination is said to be synergistic or unexpectedly effective (Colby, S. R., Weeds, 1967(15), p. 20-22). The Colby method requires only a single dose of each herbicide applied alone and the mixture of both doses. The formula used to calculate the expected efficacy (EE) which was compared with the observed efficacy (OE) to determine the efficacy of the present disclosure is explained hereinbelow:
# The expected efficacy for a combination of two active ingredients is as follows:
# The expected efficacy for a combination of three active ingredients is as follows: […]
smiles,measurement,setting,value
"C[N+](C)(C)CCO.O=C([O-])COc1ccc(Cl)cc1Cl [2,4-D choline, 2,4-dichlorophenoxyacetic acid (2,4-D) choline]","Observed efficacy (%) of 2,4-D choline (137 g a.i./ha)","7 DAA, 137 g a.i./ha, Example 9",30%
same,"Observed efficacy (%) of 2,4-D choline (228 g a.i./ha)","7 DAA, 228 g a.i./ha, Example 10",30%
COc1c(Cl)ccc(Cl)c1C(=O)O [Dicamba],Observed efficacy (%) of Dicamba (228 g a.i./ha),"7 DAA, 228 g a.i./ha, Example 1",45%
same,Observed efficacy (%) of Dicamba (228 g a.i./ha),"28 DAA, 228 g a.i./ha, Example 1",40%
COc1c(Cl)ccc(-c2nc(C(=O)OCc3ccccc3)c(Cl)c(N)c2F)c1F [Florpyrauxifen-benzyl],Observed efficacy (%) of Florpyrauxifen-benzyl (15 g a.i./ha),"7 DAA, Example 2",30%
same,Observed efficacy (%) of Florpyrauxifen-benzyl (15 g a.i./ha),"28 DAA, Example 2",20%
COCc1cnc(C2=NC(C)(C(C)C)C(=O)N2)c(C(=O)O)c1 (stereo not drawn) [Imazamox],Observed efficacy (%) of Imazamox (21 g a.i./ha),"3 DAA, 21 g a.i./ha, Example 6",10%
Cc1cnc(C2=NC(=O)C(C)(C(C)C)N2)c(C(=O)O)c1 (stereo not drawn) [Imazapic],Observed efficacy (%) of Imazapic (59 g a.i./ha),"3 DAA, Example 7",10%
same,Observed efficacy (%) of Imazapic (59 g a.i./ha),"7 DAA, Example 7",20%
same,Observed efficacy (%) of Imazapic (59 g a.i./ha),"14 DAA, Example 7",35%
same,Observed efficacy (%) of Imazapic (59 g a.i./ha),"21 DAA, Example 7",30%
same,Observed efficacy (%) of Imazapic (59 g a.i./ha),"28 DAA, Example 7",40%
same,Observed efficacy (%) of Imazapic (59 g a.i./ha),"35 DAA, Example 7",60%
CP(=O)(O)CC[C@H](N)C(=O)O.N [L-glufosinate ammonium],Observed efficacy (%) of L-glufosinate ammonium (Glufosinate-P-ammonium) (150 g a.i./ha),"3 DAA, Example 6",55%
same,Observed efficacy (%) of L-glufosinate ammonium (Glufosinate-P-ammonium) (150 g a.i./ha),"3 DAA, Example 7",50%
same,Observed efficacy (%) of L-glufosinate ammonium (Glufosinate-P-ammonium) (150 g a.i./ha),"3 DAA, Example 8",50%
same,Observed efficacy (%) of L-glufosinate ammonium (Glufosinate-P-ammonium) (150 g a.i./ha),"7 DAA, Example 1",65%
same,Observed efficacy (%) of L-glufosinate ammonium (Glufosinate-P-ammonium) (150 g a.i./ha),"7 DAA, Example 2",65%
same,Observed efficacy (%) of L-glufosinate ammonium (Glufosinate-P-ammonium) (150 g a.i./ha),"7 DAA, Example 3",85%
same,Observed efficacy (%) of L-glufosinate ammonium (Glufosinate-P-ammonium) (150 g a.i./ha),"7 DAA, Example 5",90%
same,Observed efficacy (%) of L-glufosinate ammonium (Glufosinate-P-ammonium) (150 g a.i./ha),"7 DAA, Example 7",80%
same,Observed efficacy (%) of L-glufosinate ammonium (Glufosinate-P-ammonium) (150 g a.i./ha),"7 DAA, Example 8",80%
same,Observed efficacy (%) of L-glufosinate ammonium (Glufosinate-P-ammonium) (150 g a.i./ha),"14 DAA, Example 3",80%
same,Observed efficacy (%) of L-glufosinate ammonium (Glufosinate-P-ammonium) (150 g a.i./ha),"14 DAA, Example 5",80%
same,Observed efficacy (%) of L-glufosinate ammonium (Glufosinate-P-ammonium) (150 g a.i./ha),"14 DAA, Example 7",95%
same,Observed efficacy (%) of L-glufosinate ammonium (Glufosinate-P-ammonium) (150 g a.i./ha),"14 DAA, Example 8",95%
same,Observed efficacy (%) of L-glufosinate ammonium (Glufosinate-P-ammonium) (150 g a.i./ha),"21 DAA, Example 7",90%
same,Observed efficacy (%) of L-glufosinate ammonium (Glufosinate-P-ammonium) (150 g a.i./ha),"21 DAA, Example 8",90%
same,Observed efficacy (%) of L-glufosinate ammonium (Glufosinate-P-ammonium) (150 g a.i./ha),"28 DAA, Example 1",95%
same,Observed efficacy (%) of L-glufosinate ammonium (Glufosinate-P-ammonium) (150 g a.i./ha),"28 DAA, Example 2",95%
same,Observed efficacy (%) of L-glufosinate ammonium (Glufosinate-P-ammonium) (150 g a.i./ha),"28 DAA, Example 4",90%
same,Observed efficacy (%) of L-glufosinate ammonium (Glufosinate-P-ammonium) (150 g a.i./ha),"28 DAA, Example 7",90%
same,Observed efficacy (%) of L-glufosinate ammonium (Glufosinate-P-ammonium) (150 g a.i./ha),"28 DAA, Example 8",90%
same,Observed efficacy (%) of L-glufosinate ammonium (Glufosinate-P-ammonium) (150 g a.i./ha),"35 DAA, Example 4",85%
same,Observed efficacy (%) of L-glufosinate ammonium (Glufosinate-P-ammonium) (150 g a.i./ha),"35 DAA, Example 7",85%
same,Observed efficacy (%) of L-glufosinate ammonium (Glufosinate-P-ammonium) (150 g a.i./ha),"35 DAA, Example 8",85%
CS(=O)(=O)c1ccc(C(=O)C2C(=O)CCCC2=O)c([N+](=O)[O-])c1 [Mesotrione],Observed efficacy (%) of Mesotrione (360 g a.i./ha),"28 DAA, Example 4",75%
same,Observed efficacy (%) of Mesotrione (360 g a.i./ha),"35 DAA, Example 4",75%
CSc1nnc(C(C)(C)C)c(=O)n1N [Metribuzin],Observed efficacy (%) of Metribuzin (360 g a.i./ha),"7 DAA, Example 5",90%
same,Observed efficacy (%) of Metribuzin (360 g a.i./ha),"14 DAA, Example 5",30%
CCOc1cc(Oc2ccc(C(F)(F)F)cc2Cl)ccc1[N+](=O)[O-] [Oxyfluorfen],Observed efficacy (%) of Oxyfluorfen (430 g a.i./ha),"7 DAA, Example 3",65%
same,Observed efficacy (%) of Oxyfluorfen (430 g a.i./ha),"14 DAA, Example 3",70%
